Data on four compounds can be found in US4831043A, “Dopaminergic benzimidazol-2-ones” (Roussel Uclaf, priority 1987, dated 1989).

SMILES strings stand for the structures. Structures can show the parent of a compound that is named as a salt. Where two headings read alike, the source gives them in different places.

As a reminder, the IC50 is the midpoint of a concentration-inhibition curve.

The test system of data set [1] is arterial pressure. The data set is described as follows: Study of the hypotensive activity on anesthetized "normotendu" rat. Type of data set: in vivo, Male Sprague-Dawley rats (CR). The conditions noted are these: jugular vein injection. How it is done: (5) Study of the hypotensive activity on anesthetized "normotendu" rat.
Male Sprague-Dawley rats (CR) were anesthetized intraperitoneally with sodium pentobarbital (60 mg/Kg). A jugular vein was catheterized for injection of the product and a carotid artery was catheterized for registration of the arterial pressure. The product to be tested was dissolved in 10% of ethanol and then injected at a volume of 1 ml/kg. […] The following table indicates the variations of the arterial pressure after administration of the product tested expressed as a percentage of the initial control arterial pressure.

Data set [2] has as its system nigrostriated dopaminergic bundle. The data set is described as follows: Rotational behaviour after unilateral lesion of the nigrostriated bundle by 6-hydroxydopamine. The data set is classed as in vivo, rats. How it is done:
(1) Rotational behaviour after unilateral lesion of the nigrostriated bundle by 6-hydroxydopamine.
Male rats of about 220 g weight were injured in the nigrostriated dopaminergic bundle by a modified Ungerstedt's method [Acta. physiol. Scand. 1971, 82 suppl. 367-69 93] by unilateral injection of […] of 6-hydroxydopamine hydrochloride in solution in 4 microliters of physiological solution containing 0.4 mg/ml of ascorbic acid. The products studied were administered intraperitoneally and the treated animals were placed individually in a rotameter which enabled the counting of the number of rotations made by each animal in the direction opposite to that of the injured side.

Data set [3] deals with average arterial pressure. The data set is described as follows: Test of revealing a direct vasodilatation activity (demedulated rats under angiotensine II perfusion). Type of data set: in vivo, Rats of Sprague-Dawley strain. The note with it: Rattus norvegicus, intravenous cumulative doses, tested between 0.001 and 1 mg/kg, read-out: dose from which vasodilatation effect starts. The procedure: Rats of Sprague-Dawley strain with a weight of 320-350 g were anesthetized with pentobarbital (50 mg/kg by interperitoneal injection). After insertion of a carotid catheter to measure the arterial pressure and a jugular catheter for the injection of the compounds to be stidied as well as the eventual antagonists, the animals were demedulated by a steel rod which was introduced by the right orbital hole and passed down the whole length of the spinal marrow. The animals were then placed immediately under assisted respiration and some minutes after stabilization of arterial pressure, the animals received an intravenous perfusion of angiotensine II of 0.50 micrograms/kg per minute to increase their average pressure by about 100 mm of mercury. After obtaining a plateau, the test compound was injected intravenously every 2 minutes and in cumulative doses. The percentages of fall of the average arterial pressure so obtained enabled a curve of dose-response to be drawn reflecting the vasodilatation activity of the molecule studied. Previous treatment of the animals by different antagonists enabled the mechanism of action of this molecule to be distinguished. The products were tested between 0.001 and 1 mg/kg and domperidone and propanolol were used as antagonists.

For data set [4], the system named is mice. As to the kind of experiment: Study of the acute toxicity (LDO, oral route). The data set is classed as in vivo. How it is done:
(3) Study of the acute toxicity
The lethal doses LDO of the different compounds tested were evaluated after administration by oral route in mice. The maximum dose not causing any mortality in 8 days was called LDO and the following results were obtained: […]

In data set [5] the target is T1, dopaminergic receptors (Rattus norvegicus, UniProt P61169).
T1 construct: The striated bodies removed from the brains of 6 male rats; from tissue; host or cells: rat striatum (striated bodies), membrane preparation
As to the kind of experiment: Affinity for the dopaminergic receptors (displacement of 3H spiroperidol, striated bodies). Type of data set: binding, rats. The procedure:
(4) Affinity for the dopaminergic receptors
The striated bodies removed from the brains of 6 male rats weighing an average of 150 g were homogenized to the twentieth (weight/volume) in 0.32M sucrose. After centrifuging the homogenized mixture at 1,000 g for 10 minutes at 0° C. the supernatant was centrifuged at 30,000 g for 15 minutes at +4° C. The residue was taken up in 25 ml of Tris HCl 50 mM buffer, pH 7.7, and centrifuged at 30,000 g for 15 minutes at +4° C. The new residue was taken up in 50 ml of Krebs Tris HCl buffer pH 7.3, and the suspension was pre-incubated fo 10 minutes at 37° C. It was then incubated for 20 minutes on a water-bath at +37° C. in the presence of 3H spinoperidol alone, with an excess of haloperidol and with increasing concentrations of the product under test. The incubated suspensions were filtered on Whatman GF/C and the filters were washed three times with 5 ml of Tris HCl 50 mM buffer. The radio-activity of the filters was measured by liquid scintillation.
The non-specific fixation were determined in parallel by incubation of 3H spiroperidol in the presence of an excess of haloperidol and the following results were obtained. The result was expressed directly in 50% inhibiting concentrations, (IC50 : concentration of product studied, expressed in nM, necessary to displace 50% of the specific radio-activity fixed on the receptor studied).
(In general: Loss of bound radioactivity is the signal in a displacement assay; it reports binding, not function.)

T1 sequence (P61169 whole entry): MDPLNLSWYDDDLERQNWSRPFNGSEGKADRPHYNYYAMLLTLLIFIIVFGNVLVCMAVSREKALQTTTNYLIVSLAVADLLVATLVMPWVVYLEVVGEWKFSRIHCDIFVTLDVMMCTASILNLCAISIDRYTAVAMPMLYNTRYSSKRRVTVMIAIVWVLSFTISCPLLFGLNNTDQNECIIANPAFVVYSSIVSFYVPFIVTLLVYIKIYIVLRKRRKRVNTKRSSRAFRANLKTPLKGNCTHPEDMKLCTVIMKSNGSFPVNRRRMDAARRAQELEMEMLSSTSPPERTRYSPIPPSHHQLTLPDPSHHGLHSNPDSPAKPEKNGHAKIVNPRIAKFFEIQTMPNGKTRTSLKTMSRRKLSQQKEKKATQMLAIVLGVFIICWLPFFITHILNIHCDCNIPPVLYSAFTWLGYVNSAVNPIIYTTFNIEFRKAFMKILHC

Take `Br.CCCN1CCCC(c2ccc(O)c3[nH]c(=O)[nH]c23)C1` (stereo not shown) [Example 5, 1,3-dihydro-4-hydroxy-7-(1-propyl-3-piperidinyl)-2H-benzimidazol-2-one hydrobromide]: in data set [1] (dose 1 mg/kg), the “variation of the arterial pressure 5 min. after administration” value is on record as -19 percentage of the initial cont and the “variation of the arterial pressure 30 min. after administration” value is reported as -19 percentage of the initial cont. Also, in data set [1] (dose 10 mg/kg), the “variation of the arterial pressure 5 min. after administration” value was -23 percentage of the initial cont and the “variation of the arterial pressure 30 min. after administration” value is given as -21 percentage of the initial cont.
With `CN1CCCC(c2ccc(O)c3[nH]c(=O)[nH]c23)C1` (stereo not shown) [Example 6, 1,3-dihydro-4-hydroxy-7-(1-methyl-3-piperidinyl)-2H-benzimidazol-3-one hydrobromide], the minimal effective dose in data set [2] (Rattus norvegicus, ip, read-out: dose from which rotational behavior is induced) came to 10 mg/kg. Further, in data set [2] (rats, intraperitoneal, dose of 5 mg/kg), the “rotational behavior (activity)” value is “inactive”. Also, the “central dopaminergic agonist activity” value in data set [2] (rats, intraperitoneal, conclusion from rotation model of very great sensitivity) is reported as “weak”.
Consider `Br.O=c1[nH]c2c(O)ccc(C3CCCNC3)c2[nH]1` (stereo not shown) [Example 4, 1,3-dihydro-4-hydroxy-7-(3-piperidinyl)-2H-benzimidazol-2-one hydrobromide], for which the minimal effective dose in data set [3] came out at 0.03 mg/kg. For the same compound, in data set [4], the “LDO (maximum dose not causing any mortality in 8 days)” value is given as “greater than 400 mg/kg”. Also, in data set [5], the IC50 was found to be 300 nM. Also, the “variation of the arterial pressure 30 min. after administration” value in data set [1] (dose 0.1 mg/kg) is given as -17 percentage of the initial cont.
As for `O=c1[nH]c2cccc(C3CCCNC3)c2[nH]1` (stereo not shown) [Example 1, 1,3-dihydro-4-(3-piperidinyl)-2H-benzimidazol-2-one], the “LDO (maximum dose not causing any mortality in 8 days)” value in data set [4] is given as “greater than 400 mg/kg”. In addition, the IC50 in data set [5] (rat striated bodies, 3H spiroperidol, 20 minutes at 37° C., pH 7.3, read-out: IC50 (displacement of 50% of the specific radio-activity fixed on the receptor)) came to 172 nM.
